Laboratory results reported in PubChem BioAssay AID2060484 (Molecular Pharmacology Branch, DTP, NCI, 2025).

Test system: SUM149PT spheroids with HUVEC/MSC, viability
Assay: Anticancer human tumor SUM149PT cell line growth inhibition [GQUAD];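 also: spheroids exposed to drugs for seven days before readout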;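 as to viability, T/C: percent viability relative to DMSO vehicle control taken as 100%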
Conditions: for IC50: curve of first compound; for viability, T/C: stronger effect = lower value
Procedure, shortened: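 Viability of tumor cells grown as complex spheroids with endothelial and stromal cells, exposed to drug combinations. Top concentration at or near clinical Cmax (else 10 microM), diluted in half-log increments.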

[1] = second compound 0.0316 µM, first compound 0.0316 µM
[2] = second compound 0.0316 µM, first compound 0.1 µM
[3] = second compound 0.0316 µM, first compound 0.316 µM
[4] = second compound 0.0316 µM, first compound 1 µM
[5] = second compound 0.0316 µM, first compound 3.16 µM
[6] = second compound 0.0316 µM, first compound 10 µM
[7] = second compound 0.1 µM, first compound 0.0316 µM
[8] = second compound 0.1 µM, first compound 0.1 µM
[9] = second compound 0.1 µM, first compound 0.316 µM
[10] = second compound 0.1 µM, first compound 1 µM
[11] = second compound 0.1 µM, first compound 3.16 µM
[12] = second compound 0.1 µM, first compound 10 µM
[13] = second compound 0.316 µM, first compound 0.0316 µM
[14] = second compound 0.316 µM, first compound 0.1 µM
[15] = second compound 0.316 µM, first compound 0.316 µM
[16] = second compound 0.316 µM, first compound 1 µM
[17] = second compound 0.316 µM, first compound 3.16 µM
[18] = second compound 0.316 µM, first compound 10 µM
[19] = second compound 1 µM, first compound 0.0316 µM
[20] = second compound 1 µM, first compound 0.1 µM
[21] = second compound 1 µM, first compound 0.316 µM
[22] = second compound 1 µM, first compound 1 µM
[23] = second compound 1 µM, first compound 3.16 µM
[24] = second compound 1 µM, first compound 10 µM
[25] = second compound 3.16 µM, first compound 0.0316 µM
[26] = second compound 3.16 µM, first compound 0.1 µM
[27] = second compound 3.16 µM, first compound 0.316 µM
[28] = second compound 3.16 µM, first compound 1 µM
[29] = second compound 3.16 µM, first compound 3.16 µM
[30] = second compound 3.16 µM, first compound 10 µM
[31] = second compound 10 µM, first compound 0.0316 µM
[32] = second compound 10 µM, first compound 0.1 µM
[33] = second compound 10 µM, first compound 0.316 µM
[34] = second compound 10 µM, first compound 1 µM
[35] = second compound 10 µM, first compound 3.16 µM
[36] = second compound 10 µM, first compound 10 µM

Compound: COc1ccc([C@@H](O)c2cc(-c3ncnc4cc(N5CCOCC5)ccc34)c(F)cc2Cl)nn1 + Cc1cnc(CNC(=O)c2c(=O)c3ccc(N4CCCN(C)CC4)nc3n3c2sc2ccccc23)cn1
- IC50 (second compound 0.0316 µM): 385 nM
- IC50 (second compound 0.1 µM): 142 nM
- IC50 (second compound 0.316 µM): 61.1 nM
- IC50 (second compound 1 µM): < 31.6 nM
- IC50 (second compound 3.16 µM): < 31.6 nM
- IC50 (second compound 10 µM): < 31.6 nM
- viability, T/C [1]: 88.4%
- viability, T/C [2]: 68.2%
- viability, T/C [3]: 55.8%
- viability, T/C [4]: 35.8%
- viability, T/C [5]: 24.5%
- viability, T/C [6]: 18.5%
- viability, T/C [7]: 65.8%
- viability, T/C [8]: 51.8%
- viability, T/C [9]: 44.1%
- viability, T/C [10]: 25.5%
- viability, T/C [11]: 21.5%
- viability, T/C [12]: 16.3%
- viability, T/C [13]: 53%
- viability, T/C [14]: 48.2%
- viability, T/C [15]: 36%
- viability, T/C [16]: 24.5%
- viability, T/C [17]: 19.2%
- viability, T/C [18]: 14.8%
- viability, T/C [19]: 43.4%
- viability, T/C [20]: 38.9%
- viability, T/C [21]: 35.4%
- viability, T/C [22]: 23.2%
- viability, T/C [23]: 19.6%
- viability, T/C [24]: 15.7%
- viability, T/C [25]: 34.5%
- viability, T/C [26]: 34.1%
- viability, T/C [27]: 29.4%
- viability, T/C [28]: 20.7%
- viability, T/C [29]: 17.6%
- viability, T/C [30]: 13.3%
- viability, T/C [31]: 0.17%
- viability, T/C [32]: 1.03%
- viability, T/C [33]: 0.2%
- viability, T/C [34]: 0.32%
- viability, T/C [35]: 1.7%
- viability, T/C [36]: 1.3%

Compound: C=CC(=O)N1CCN(c2nc(=O)n(-c3c(C)ccnc3C(C)C)c3nc(-c4c(O)cccc4F)c(F)cc23)C(C)C1 (stereo not drawn) + Cc1[nH]c2ccc(F)cc2c1-c1nc2c3cccnc3c3ncccc3c2[nH]1
- IC50 (second compound 0.0316 µM): > 10000 nM
- IC50 (second compound 0.1 µM): > 10000 nM
- IC50 (second compound 0.316 µM): > 10000 nM
- IC50 (second compound 1 µM): > 10000 nM
- IC50 (second compound 3.16 µM): > 10000 nM
- IC50 (second compound 10 µM): > 10000 nM
- viability, T/C [1]: 106%
- viability, T/C [2]: 91.6%
- viability, T/C [3]: 99.1%
- viability, T/C [4]: 108%
- viability, T/C [5]: 125%
- viability, T/C [6]: 117%
- viability, T/C [7]: 116%
- viability, T/C [8]: 93.8%
- viability, T/C [9]: 111%
- viability, T/C [10]: 116%
- viability, T/C [11]: 124%
- viability, T/C [12]: 114%
- viability, T/C [13]: 94.3%
- viability, T/C [14]: 107%
- viability, T/C [15]: 95.6%
- viability, T/C [16]: 112%
- viability, T/C [17]: 122%
- viability, T/C [18]: 108%
- viability, T/C [19]: 97.9%
- viability, T/C [20]: 97.6%
- viability, T/C [21]: 112%
- viability, T/C [22]: 118%
- viability, T/C [23]: 120%
- viability, T/C [24]: 114%
- viability, T/C [25]: 99.7%
- viability, T/C [26]: 86%
- viability, T/C [27]: 102%
- viability, T/C [28]: 109%
- viability, T/C [29]: 115%
- viability, T/C [30]: 114%
- viability, T/C [31]: 92%
- viability, T/C [32]: 80.6%
- viability, T/C [33]: 100%
- viability, T/C [34]: 106%
- viability, T/C [35]: 111%
- viability, T/C [36]: 114%

Compound: CCCS(=O)(=O)Nc1ccc(F)c(C(=O)c2c[nH]c3ncc(-c4ccc(Cl)cc4)cc23)c1F + Cc1[nH]c2ccc(F)cc2c1-c1nc2c3cccnc3c3ncccc3c2[nH]1
- IC50 (second compound 0.0316 µM): > 10000 nM
- IC50 (second compound 0.1 µM): > 10000 nM
- IC50 (second compound 0.316 µM): > 10000 nM
- IC50 (second compound 1 µM): 9080 nM
- IC50 (second compound 3.16 µM): 8190 nM
- IC50 (second compound 10 µM): 7250 nM
- viability, T/C [1]: 107%
- viability, T/C [2]: 97.7%
- viability, T/C [3]: 109%
- viability, T/C [4]: 101%
- viability, T/C [5]: 74.7%
- viability, T/C [6]: 53.3%
- viability, T/C [7]: 102%
- viability, T/C [8]: 105%
- viability, T/C [9]: 102%
- viability, T/C [10]: 99.8%
- viability, T/C [11]: 82.6%
- viability, T/C [12]: 54.9%
- viability, T/C [13]: 110%
- viability, T/C [14]: 104%
- viability, T/C [15]: 105%
- viability, T/C [16]: 102%
- viability, T/C [17]: 78.9%
- viability, T/C [18]: 51.2%
- viability, T/C [19]: 103%
- viability, T/C [20]: 107%
- viability, T/C [21]: 105%
- viability, T/C [22]: 105%
- viability, T/C [23]: 79.6%
- viability, T/C [24]: 47.3%
- viability, T/C [25]: 98.3%
- viability, T/C [26]: 92.7%
- viability, T/C [27]: 102%
- viability, T/C [28]: 109%
- viability, T/C [29]: 71.3%
- viability, T/C [30]: 45.6%
- viability, T/C [31]: 98.1%
- viability, T/C [32]: 104%
- viability, T/C [33]: 102%
- viability, T/C [34]: 105%
- viability, T/C [35]: 74.6%
- viability, T/C [36]: 40.4%

Compound: Cc1[nH]c2ccccc2c1CCNCc1ccc(/C=C/C(=O)NO)cc1 + CN(C)c1ccc(Nc2c3ccc(NC(=O)CCN4CCCC4)cc3nc3cc(NC(=O)CCN4CCCC4)ccc23)cc1
- IC50 (second compound 0.0316 µM): 253 nM
- IC50 (second compound 0.1 µM): 237 nM
- IC50 (second compound 0.316 µM): 231 nM
- IC50 (second compound 1 µM): 202 nM
- IC50 (second compound 3.16 µM): 190 nM
- IC50 (second compound 10 µM): 133 nM
- viability, T/C (second compound 0.0316 µM, first compound 0.000999 µM): 103%
- viability, T/C (second compound 0.0316 µM, first compound 0.00316 µM): 98%
- viability, T/C (second compound 0.0316 µM, first compound 0.00999 µM): 96.5%
- viability, T/C [1]: 102%
- viability, T/C (second compound 0.0316 µM, first compound 0.0999 µM): 85.4%
- viability, T/C [3]: 41.5%
- viability, T/C (second compound 0.1 µM, first compound 0.000999 µM): 97.8%
- viability, T/C (second compound 0.1 µM, first compound 0.00316 µM): 97.1%
- viability, T/C (second compound 0.1 µM, first compound 0.00999 µM): 96.6%
- viability, T/C [7]: 90.7%
- viability, T/C (second compound 0.1 µM, first compound 0.0999 µM): 87.6%
- viability, T/C [9]: 37.4%
- viability, T/C (second compound 0.316 µM, first compound 0.000999 µM): 91.2%
- viability, T/C (second compound 0.316 µM, first compound 0.00316 µM): 96.8%
- viability, T/C (second compound 0.316 µM, first compound 0.00999 µM): 88.8%
- viability, T/C [13]: 91.1%
- viability, T/C (second compound 0.316 µM, first compound 0.0999 µM): 89.8%
- viability, T/C [15]: 35.1%
- viability, T/C (second compound 1 µM, first compound 0.000999 µM): 90.9%
- viability, T/C (second compound 1 µM, first compound 0.00316 µM): 88.5%
- viability, T/C (second compound 1 µM, first compound 0.00999 µM): 84.3%
- viability, T/C [19]: 85.5%
- viability, T/C (second compound 1 µM, first compound 0.0999 µM): 81.7%
- viability, T/C [21]: 29.6%
- viability, T/C (second compound 3.16 µM, first compound 0.000999 µM): 81.6%
- viability, T/C (second compound 3.16 µM, first compound 0.00316 µM): 88.5%
- viability, T/C (second compound 3.16 µM, first compound 0.00999 µM): 86.5%
- viability, T/C [25]: 84.5%
- viability, T/C (second compound 3.16 µM, first compound 0.0999 µM): 72.5%
- viability, T/C [27]: 32.1%
- viability, T/C (second compound 10 µM, first compound 0.000999 µM): 90%
- viability, T/C (second compound 10 µM, first compound 0.00316 µM): 84.7%
- viability, T/C (second compound 10 µM, first compound 0.00999 µM): 82.6%
- viability, T/C [31]: 84.3%
- viability, T/C (second compound 10 µM, first compound 0.0999 µM): 58%
- viability, T/C [33]: 25.9%
